Measurements published in PubChem BioAssay AID1963830 (Molecular Pharmacology Branch, DTP, NCI, 2024).

Test system: 922993-354-T-J3-PDC complex spheroid viability
Test: Anticancer human tumor 922993-354-T-J3-PDC patient-derived endometrial carcinoma cell line growth inhibition [POLQ]
Details: for IC50: curve of first compound; for viability, T/C: stronger effect = lower value
In short: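 Growth inhibition in 3D: complex spheroids (tumor PDC, HUVEC, MSC) treated with POLQ inhibitor combinations; where Cmax unknown, highest tested concentration 10 microM, except SN-38 at 1 microM.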
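Note: spheroids exposed to the agents for one week.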
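Throughout, for viability, T/C: 100% = DMSO vehicle control wells.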

**Q.** What does the source list for `CCc1cc2c(N3CCc4c(cc(Cn5ccnc5)cc4-c4cn(C)nc4C(F)(F)F)C3=O)cc(C)nc2c(OC)n1` + Nc1ccc(C#CCN(C(=O)Cc2ncc(C(F)(F)F)cc2C(F)(F)F)c2ccc(F)cc2)nn1?
**A.** IC50 (second compound 0.0316 µM): > 10 µM; IC50 (second compound 0.1 µM): > 10 µM; IC50 (second compound 0.316 µM): > 10 µM; IC50 (second compound 1 µM): > 10 µM; IC50 (second compound 3.16 µM): > 10 µM; IC50 (second compound 10 µM): > 10 µM; viability, T/C (second compound 0.0316 µM, first compound 0.0316 µM): 103%; viability, T/C (second compound 0.0316 µM, first compound 0.1 µM): 106%; viability, T/C (second compound 0.0316 µM, first compound 0.316 µM): 105%; viability, T/C (second compound 0.0316 µM, first compound 1 µM): 110%; viability, T/C (second compound 0.0316 µM, first compound 3.16 µM): 107%; viability, T/C (second compound 0.0316 µM, first compound 10 µM): 101%; viability, T/C (second compound 0.1 µM, first compound 0.0316 µM): 108%; viability, T/C (second compound 0.1 µM, first compound 0.1 µM): 106%; viability, T/C (second compound 0.1 µM, first compound 0.316 µM): 108%; viability, T/C (second compound 0.1 µM, first compound 1 µM): 105%; viability, T/C (second compound 0.1 µM, first compound 3.16 µM): 101%; viability, T/C (second compound 0.1 µM, first compound 10 µM): 102%; viability, T/C (second compound 0.316 µM, first compound 0.0316 µM): 103%; viability, T/C (second compound 0.316 µM, first compound 0.1 µM): 98.1%; viability, T/C (second compound 0.316 µM, first compound 0.316 µM): 105%; viability, T/C (second compound 0.316 µM, first compound 1 µM): 106%; viability, T/C (second compound 0.316 µM, first compound 3.16 µM): 109%; viability, T/C (second compound 0.316 µM, first compound 10 µM): 104%; viability, T/C (second compound 1 µM, first compound 0.0316 µM): 102%; viability, T/C (second compound 1 µM, first compound 0.1 µM): 100%; viability, T/C (second compound 1 µM, first compound 0.316 µM): 107%; viability, T/C (second compound 1 µM, first compound 1 µM): 107%; viability, T/C (second compound 1 µM, first compound 3.16 µM): 106%; viability, T/C (second compound 1 µM, first compound 10 µM): 99.1%; viability, T/C (second compound 3.16 µM, first compound 0.0316 µM): 99.8%; viability, T/C (second compound 3.16 µM, first compound 0.1 µM): 107%; viability, T/C (second compound 3.16 µM, first compound 0.316 µM): 102%; viability, T/C (second compound 3.16 µM, first compound 1 µM): 105%; viability, T/C (second compound 3.16 µM, first compound 3.16 µM): 103%; viability, T/C (second compound 3.16 µM, first compound 10 µM): 99.6%; viability, T/C (second compound 10 µM, first compound 0.0316 µM): 99%; viability, T/C (second compound 10 µM, first compound 0.1 µM): 98.3%; viability, T/C (second compound 10 µM, first compound 0.316 µM): 100%; viability, T/C (second compound 10 µM, first compound 1 µM): 102%; viability, T/C (second compound 10 µM, first compound 3.16 µM): 99.3%; viability, T/C (second compound 10 µM, first compound 10 µM): 92%

**Q.** What does the source list for `CC(=O)O[C@H]1C(=O)[C@@]2(C)[C@H]([C@H](OC(=O)c3ccccc3)[C@]3(O)C[C@H](OC(=O)[C@H](O)[C@@H](NC(=O)c4ccccc4)c4ccccc4)C(C)=C1C3(C)C)[C@]1(OC(C)=O)CO[C@@H]1C[C@@H]2O` + COC1C(OC(N)=O)C(O)C(Oc2ccc3c(O)c(NC(=O)c4ccc(O)c(CC=C(C)C)c4)c(=O)oc3c2C)OC1(C)C?
**A.** IC50 (second compound 0.0316 µM): 2.64 µM; IC50 (second compound 0.1 µM): > 3 µM; IC50 (second compound 0.316 µM): 2.99 µM; IC50 (second compound 1 µM): > 3 µM; IC50 (second compound 3.16 µM): > 3 µM; IC50 (second compound 10 µM): 2 µM; viability, T/C (second compound 0.0316 µM, first compound 0.00949 µM): 97%; viability, T/C (second compound 0.0316 µM, first compound 0.03 µM): 96.3%; viability, T/C (second compound 0.0316 µM, first compound 0.0949 µM): 95.1%; viability, T/C (second compound 0.0316 µM, first compound 0.3 µM): 105%; viability, T/C (second compound 0.0316 µM, first compound 0.949 µM): 85.5%; viability, T/C (second compound 0.0316 µM, first compound 3 µM): 45.6%; viability, T/C (second compound 0.1 µM, first compound 0.00949 µM): 102%; viability, T/C (second compound 0.1 µM, first compound 0.03 µM): 101%; viability, T/C (second compound 0.1 µM, first compound 0.0949 µM): 107%; viability, T/C (second compound 0.1 µM, first compound 0.3 µM): 106%; viability, T/C (second compound 0.1 µM, first compound 0.949 µM): 83.6%; viability, T/C (second compound 0.1 µM, first compound 3 µM): 55.8%; viability, T/C (second compound 0.316 µM, first compound 0.00949 µM): 97.1%; viability, T/C (second compound 0.316 µM, first compound 0.03 µM): 118%; viability, T/C (second compound 0.316 µM, first compound 0.0949 µM): 104%; viability, T/C (second compound 0.316 µM, first compound 0.3 µM): 97.7%; viability, T/C (second compound 0.316 µM, first compound 0.949 µM): 80.5%; viability, T/C (second compound 0.316 µM, first compound 3 µM): 49.8%; viability, T/C (second compound 1 µM, first compound 0.00949 µM): 96.9%; viability, T/C (second compound 1 µM, first compound 0.03 µM): 99.4%; viability, T/C (second compound 1 µM, first compound 0.0949 µM): 104%; viability, T/C (second compound 1 µM, first compound 0.3 µM): 104%; viability, T/C (second compound 1 µM, first compound 0.949 µM): 79.9%; viability, T/C (second compound 1 µM, first compound 3 µM): 53.2%; viability, T/C (second compound 3.16 µM, first compound 0.00949 µM): 99.2%; viability, T/C (second compound 3.16 µM, first compound 0.03 µM): 92.8%; viability, T/C (second compound 3.16 µM, first compound 0.0949 µM): 101%; viability, T/C (second compound 3.16 µM, first compound 0.3 µM): 99.3%; viability, T/C (second compound 3.16 µM, first compound 0.949 µM): 76.9%; viability, T/C (second compound 3.16 µM, first compound 3 µM): 54.9%; viability, T/C (second compound 10 µM, first compound 0.00949 µM): 84.7%; viability, T/C (second compound 10 µM, first compound 0.03 µM): 82.2%; viability, T/C (second compound 10 µM, first compound 0.0949 µM): 94.9%; viability, T/C (second compound 10 µM, first compound 0.3 µM): 68.9%; viability, T/C (second compound 10 µM, first compound 0.949 µM): 64%; viability, T/C (second compound 10 µM, first compound 3 µM): 43.3%
